Assay results as given in patent US12172974B2 (Biohaven Pharmaceutical Holding Company Ltd., priority 2012, dated 2024).
Entries after “also recorded” stand apart in the source; their conditions may differ.

Tests used:
[1] = test system: Stage III and IV melanoma; details: 14 days of treatment; cited from earlier work
[2] = Stability in Simulated Gastric Fluid (SGF); format: in vitro ADME; details: 37° C., 0.01 mg/mL
Procedure: (§1) Stability in Simulated Gastric Fluid (SGF) and Simulated Intestinal Fluid (SIF). Procedure from Baudy et. al. (J. Med. Chem. 2009, 52, 771-778) used. The physiological stability of prodrugs was determined by examining the stability of the compound in SGF, and SIF at 37° C. The compounds were prepared in a 9:1 mixture of the appropriate test component (SGF, SIF) and acetonitrile to a final concentration of 0.01 mg/mL. The samples were thoroughly mixed and maintained at 37° C. Each sample was injected consecutively onto an Agilent 1100 system (Luna C18, 3 μm, 50 mm×3 mm; 1 mL/min; mobile phase of 0.1% trifluoroacetic acid in water/0.1% trifluoroacetic acid in acetonitrile) after a 3 h period. The percent remaining of prodrug was calculated by comparing the area of prodrug compound versus riluzole generated. The identities of the parent compounds and conversion products were confirmed by LC/MS.

[3] = Stability in Simulated Intestinal Fluid (SIF); format: in vitro ADME; details: 37° C., 0.01 mg/mL
Procedure: as §1

[4] = Metabolic stability in pooled mouse liver microsomes; format: in vitro ADME; details: mouse liver microsomes 0.5 mg/mL, 1 uM, 37° C., NADPH
Procedure: (§2) Metabolic Stability: In vitro metabolic stability was determined in pooled mouse or human liver microsomes (BD Gentest) at a protein concentration of 0.5 mg/mL in reaction buffer (100 mM KH2PO4, pH 7.4 and 12 mM MgCl2). Each drug candidate was added to a final concentration of 1 uM. This mixture was pre-warmed to 37° C. for 10 minutes prior to starting the reaction with the addition of β-Nicotinamide adenine dinucleotide 2′-phosphate reduced (NADPH) to a final concentration of 1 mM. A parallel incubation lacking NADPH served as the control. After incubation for 30 min at 37° C., the reactions were quenched by the addition of acetonitrile containing 0.1% formic acid and internal standard, vortex mixed for 2 minutes and centrifuged at 4000 rpm for 10 minutes to pellet the precipitated protein. The resulting supernatant containing the drug candidate and its potential metabolites was diluted 5-fold with water containing 0.1% formic acid and submitted to LC-MS/MS analysis. […]
(§3) LC-MS/MS Analysis: An aliquot from each incubation was analyzed by LC-MS/MS with SRM detection in the positive ionization mode using an ABSciex API 5500 QTrap Mass Spectrometer interfaced via the ABSciex Turbo V IonSpray source (ESI) to an Eksigent ExpressHT LC system. […] A fast gradient, from 15 to 85% organic in 2.5 minutes, with run time of 5.0 minutes, and flow rate of 50 ul/min was utilized. Peak areas were integrated using MultiQuant v2.0 software from ABSciex.

[5] = Metabolic stability in pooled human liver microsomes; format: in vitro ADME; details: human liver microsomes 0.5 mg/mL, 1 uM, 37° C., NADPH
Procedure: as §2, §3

[6] = Plasma stability in fresh mouse plasma; format: in vitro ADME; details: 1 uM, 37° C.
Procedure: (§4) Plasma Stability: Assessment of plasma stability was carried out by individual incubations of drug candidates in fresh mouse or human control plasma at a concentration of 1 uM for 1 hour at 37° C. After which, the samples were de-proteinized by addition of 2 volumes of acetonitrile containing 0.1% formic acid and internal standard, vortex mixed for 2 minutes and centrifuged at 4000 rpm for 10 minutes to pellet precipitated protein. The resulting supernatant containing the drug candidates was diluted 5-fold with water containing 0.1% formic acid and submitted to LC-MS/MS analysis. All determinations were done in triplicate. […]
as §3

[7] = Plasma stability in fresh human plasma; format: in vitro ADME; details: 1 uM, 37° C.
Procedure: as §4, §3

Row | SMILES | patients with clinical or radiologic evidence of tumor response [1] | SGF (3 hours): percent of prodrug metabolized to riluzole [2] [%] | SIF (3 hours): percent of prodrug metabolized to riluzole [3] [%] | Metabolic Stability mouse (30 minutes): percent of prodrug metabolized to riluzole [4] [%] | Metabolic Stability human (30 minutes): percent of prodrug metabolized to riluzole [5] [%] | Plasma Stability mouse (1 hour): percent of prodrug metabolized to riluzole [6] [%] | Plasma Stability Human (1 hour): percent of prodrug metabolized to riluzole [7] [%]
1 | Nc1nc2ccc(OC(F)(F)F)cc2s1 [riluzole, 6-(trifluoromethoxy)-1,3-benzothiazol-2-amine] | four of twelve; also recorded: four of 12 |  |  |  |  |  | 
2 | O=C(O)CCC(=O)Nc1nc2ccc(OC(F)(F)F)cc2s1 [Cpd 20, N-(6-Trifluoromethoxy-benzothiazol-2-yl)-succinamic acid] |  | 0 | 0 | 70 | 0 | 0 | 16
3 | CC(C)[C@H](N)C(=O)Nc1nc2ccc(OC(F)(F)F)cc2s1 [Cpd 11, (S)-2-Amino-3-methyl-N-(6-trifluoromethoxy-benzothiazol-2-yl)-butyramide] |  | 0 | 40 | 40 | 6 | 45 | 11
4 | O=C(Cc1ccccc1[N+](=O)[O-])Nc1nc2ccc(OC(F)(F)F)cc2s1 [Cpd 27, 2-(2-Nitro-phenyl)-N-(6-trifluoromethoxy-benzothiazol-2-yl)-acetamide] |  | 0 | 0 | 59 | 22 | 0 | 13
5 | C[C@@H](N)C(=O)Nc1nc2ccc(OC(F)(F)F)cc2s1 [Cpd 2, (R)-2-Amino-N-(6-trifluoromethoxy-benzothiazol-2-yl)-propionamide] |  | 0 | 50 | 10 | 4 | 36 | 15
6 | COC(=O)Nc1nc2ccc(OC(F)(F)F)cc2s1 [Cpd 12, (6-Trifluoromethoxy-benzothiazol-2-yl)-carbamic acid methyl ester] |  | 0 | 0 | 10 | 0 | 0 | 15
7 | COC(=O)CCC(=O)Nc1nc2ccc(OC(F)(F)F)cc2s1 [Cpd 21, N-(6-Trifluoromethoxy-benzothiazol-2-yl)-succinamic acid methyl ester] |  | 3 | 0 | 77 | 34 | 99 | 25
8 | CN(C)CCOC(=O)Nc1nc2ccc(OC(F)(F)F)cc2s1 [Cpd 18, (6-Trifluoromethoxy-benzothiazol-2-yl)-carbamic acid 2-dimethylamino-ethyl ester] |  | 0 | 0 | 13 | 10 | 3 | 0
9 | NCCCCC(=O)Nc1nc2ccc(OC(F)(F)F)cc2s1 [Cpd 26, 5-Amino-pentanoic acid (6-trifluoromethoxy-benzothiazol-2-yl)-amide] |  | 0 | 0 | 66 | 19 | 0 | 5
10 | CC(C)(C)OC(=O)CCC(=O)Nc1nc2ccc(OC(F)(F)F)cc2s1 [Cpd 22, N-(6-Trifluoromethoxy-benzothiazol-2-yl)-succinamic acid tert-butyl ester] |  | 0 | 0 | 0 | 21 | 0 | 0
